Data on three compounds can be found in patent US20100254965A1, “Adenosine Signaling in Diagnosis, Treatment, and Prevention of Priapism and Erectile Dysfunction” (BOARD OF REGENTS ,THE UNIVERSITY OF TEXAS SYSTEM, priority 2006, published 2010).

The test system of assay [1] is corpus cavernosal strips (CCS). As to the kind of experiment: EFS-induced cGMP in CCS of ADA+ and ADA-/- mice. The assay is classed as cell-based, mouse. To be noted: EFS 5V 30 Hz, MRS1706 (10 nM), ZM241385 (50 nM), L-NAME (100 μM). How it is done: FIG. 19. EFS leads to increased cAMP and cGMP production via A2BR in ADA-deficient mice. (a-b) Corpus cavernosal strips (CCS) of the ADA−/− and ADA+ mice were isolated and treated with 10 μM phenylephrine (PE) to induce precontraction. Then CCS were treated with MRS1706 (10 nM), ZM241385 (50 nM) or L-NAME (100 μM) prior to electrical field stimulation (EFS) at 5V and 30 Hz. 60 second after nerve stimulation, the CCS were quickly frozen and cellular cAMP (a) and cGMP (b) were measured by using commercial enzyme immunoassay kit (Amersham Pharmacia). N=4. Data are expressed as mean±SE. *p<0.05, ADA deficient mice versus the control; **p<0.05, CCS of ADA-deficient mice with MRS1706 and/or L-NAME treatment versus CCS of ADA-deficient mice without treatment; ***p<0.05, CCS of the control mice with MRS1706 and/or L-NAME treatment versus CCS of the control mice without treatment.
Function experiments. […] The contractility of each isolated corpus cavernosum smooth muscle cells (CCSM) strip was measured using an isometric force transducer (AD Instrument Inc., Georgia, Vt., USA). […] The contractile responses of the strips were analysed by adding 10 μM phenylephrine to the bath, and force changes were recorded in response to drug application and to electrical field stimulation. […]

Assay [2] relates to corpus cavernosal smooth muscle cells (CCSM). As to the kind of experiment: cAMP production in primary corpus cavernosal / penile vascular smooth muscle cells (CCSM, PVSM). Type of assay: cell-based, mouse. To be noted: 10 min; for adenosine-mediated cAMP induction was blocked: CCSM, MRS1706 10 μM, ZM241385 50 nM. As for the experimental part:
PVSM were isolated and cultured from mouse penes. The cells were be switched to serum-free medium and treated with different concentrations of adenosine with or without A2B antagonist (MRS1706-1 μM) or A2A agonist (CGS-21680-1 μM) alone for 10 min. Then cellular extracts were collected and cAMP levels were measured using an ELISA kit. The data represent mean±SE.
Data are presented as mean±SE. *, p<0.01.
FIG. 18. Adenosine stimulated both cAMP and cGMP induction in corpus cavernosal smooth muscle cells (CCSM) via A2BR activation. (a) Adenosine receptor expression profile in purified primary CCSM. CCSM were purified from adult mouse penes. […] (b) CCSM were isolated and cultured from mouse penes. The cells were switched to serum-free medium and treated with different concentrations of adenosine with or without A2BR antagonist (MRS1706-10 μM), A2AR antagonist (ZM241385-50 nM) or A2AR agonist (CGS-21680-10 μM) alone for 10 min. Then cellular extracts were collected and cAMP levels were measured using an ELISA kit. The data represent mean±SE. *p<0.05, adenosine treated versus the untreated; **p<0.05, adenosine plus MRS1706 or ZM241385 versus the adenosine treated. (c) CCSM were isolated from penes of the wild type and A2BR-deficient mice and cultured with or without adenosine (100 μM), NECA (10 μM), a potent adenosine receptor agonist, forskolin (10 μM), an adenylyl cyclase agonist. After 10 min treatment, the cellular extracts were collected and cAMP levels were measured by using a commercial enzyme immunoassay kit (Amersham Pharmacia). N=4. *p<0.05, adenosine, forskolin and NECA treated versus the untreated control. (d) Corpus cavernosal strips (CCS) were isolated from wild type and A2BR-deficient mice and treated with different concentrations of adenosine in the presence or absence of L-NAME (100 μM) or MRS1706 (10 μM). 10 min after treatment, cellular extracts were collected and cGMP levels were measured by using a commercial enzyme immunoassay kit (Amersham Pharmacia). Data are expressed as mean±SE. *p<0.05, adenosine treated versus the control; **p<0.05, adenosine treated with MRS1706 versus the adenosine treated; ***p<0.05, CCS of A2BR-deficient mice treated with adenosine versus the CCS of wild type mice treated with adenosine. N=6-7. (e) CCSM were isolated from wild type and A2BR deficient mice and cultured with or without adenosine (100 μM), NECA (10 μM), a potent adenosine receptor agonist, forskolin (10 μM), an adenylyl cyclase agonist, or diethylamine-NONOate (DEA/NO) (10 μM). After 10 min treatment, the cellular extracts were collected and cAMP levels were measured by using a commercial enzyme immunoassay kit (Amersham Pharmacia). N=4. *p<0.05, DEA/NO treated versus to the untreated control. (f) Both cAMP and cGMP induction contribute to adenosine-mediated decreased PE-induced phosphorylation of myosin light chain (MLC). CCSM and CCS were isolated and cultured with the treatment of phenylephrine (PE-10 μM) in the presence or absence of adenosine (100 μM) or L-NAME (100 μM). 10 min after treatment, cellular extracts were isolated and western blot analysis were performed. The total MLC and phosphorylated MLC at S20 were detected by specific antibodies.
Isolation of primary corpus cavernosal smooth muscle cells (CCSM). Corpus cavernosum tissues were dissected as described above. Cavernosal tissue was washed in PBS and minced into […] pieces. Segments were incubated in 5-10 ml enzyme solutions containing 0.02% collagenase A (0.272 U/mg protein, Roche, Mannheim, Germany) and 0.5% elastase (3.73 U/mg protein, Cell system, St Katharinen, Germany) in a 75 mm flask at 37° C. for 6 hours. Enzymatic digestion was terminated by adding 10 ml DMEM supplemented with 10% fetal calf serum (FCS). […]
In general terms: Changes in cAMP serve as a functional read-out for many G protein-coupled receptors.

In the case of `CCCn1c(=O)c2[nH]c(-c3ccc(OCC(=O)Nc4ccc(C(C)=O)cc4)cc3)nc2n(CCC)c1=O` [MRS1706], the “EFS-increased levels of cGMP were inhibited” value in assay [1] is “significantly inhibited”. In addition, the “adenosine-mediated cAMP induction was blocked” value in assay [2] is given as “blocked”.

With `Nc1nc(NCCc2ccc(O)cc2)nc2nc(-c3ccco3)nn12` [ZM241385], the “EFS-increased levels of cGMP were inhibited” value in assay [1] is “not”. Moreover, the “adenosine-mediated cAMP induction was blocked” value in assay [2] was “not”.

In the case of `Nc1ncnc2c1ncn2[C@@H]1O[C@H](CO)[C@@H](O)[C@H]1O` [adenosine], the cAMP production entry is “failed to induce cAMP production” in assay [2] (CCSM/PVSM of A2BR deficient (A2B-/-) mice); “essentially no effect on cAMP levels” in assay [2] (CCSM/PVSM of A2BR deficient (A2B-/-) mice, listed as Adenosine); “induced cAMP” in assay [2] (wild type CCSM/PVSM, agent alone); “elevate cAMP levels” in assay [2] (wild type CCSM/PVSM, agent alone, listed as Adenosine).
